Values of other authors as cited in US20240398817A1, “CARDIO- AND RENOSAFE ANTIDIABETIC THERAPY” (priority 2018, published 2024).
Like-named read-outs stand apart in the source and are kept apart here.

Key:
Conditions in all cases: in vivo; cited from earlier work
[1] = test system: people with type 2 diabetes
[2] = test system: people with type 2 diabetes; remark: listed apart in the source
[3] = test system: people with type 2 diabetes; remark: listed apart in the source

Cn1c(=O)cc(N2CCC[C@@H](N)C2)n(Cc2ccccc2C#N)c1=O [alogliptin]
Incidence of hospitalization for heart failure versus placebo, in words [1]: numerically increased | Major adverse CV events compared with placebo, in words [1]: neutral effects

N#C[C@@H]1C[C@@H]2C[C@@H]2N1C(=O)[C@@H](N)C12CC3CC(CC(O)(C3)C1)C2 [saxagliptin]
Major adverse CV events compared with placebo, in words [2]: neutral effects

N[C@@H](CC(=O)N1CCn2c(nnc2C(F)(F)F)C1)Cc1cc(F)c(F)cc1F [sitagliptin]
Incidence of heart failure hospitalization versus placebo, in words [3]: no effect | Major adverse CV events compared with placebo, in words [3]: neutral effects
